pIC50: −log10 of the molar value.
Assays:
CD69 expression = assay: Blockade of CD69 Expression in Human Whole Blood Samples; assay type: cell-based; conditions: 30 minutes pre-incubation, activation with anti-IgM, cells gated on CD20, CD69 by FACS
Protocol: Activation of the B cell receptor leads to increased BTK activity, calcium mobilization and B cell activation (see Honigberg L. A., et. al., Proc Natl Acad Sci USA. 107:13075-80. 2010). […] CD69 was expressed following B cell activation as a measure of BTK activity in whole blood. Aliquots of whole blood were pre-incubated with serial dilutions of test compound for 30 minutes followed by activation with anti-IgM (goat Fab′ 2, 50 μg/ml). Samples were incubated overnight at 37° C. and then stained with PE labeled anti-CD20 and APC labeled anti-CD69 (BD Pharmingen) for 30 minutes according to the manufacturer's directions. Whole blood was then lysed and cells gated on CD20 expression were quantified for CD 69 expression by FACS. The percent inhibition was calculated based on a DMSO control for no inhibition and plotted as a function of test compound concentration from which an IC50 value was calculated.

human recombinant BTK = human recombinant BTK (Homo sapiens (Human), UniProt Q06187); assay: BTK Enzymatic Activity Assay (Caliper-based kinase assay); assay type: biochemical; conditions: human recombinant BTK (0.5 nM), ATP (16 μM), peptide substrate (1 μM), room temperature for 3 h
Protocol: A Caliper-based kinase assay (Caliper Life Sciences, Hopkinton, Mass.) was used to measure inhibition of BTK kinase activity of a compound of the present disclosure. Serial dilutions of test compounds were incubated with human recombinant BTK (0.5 nM), ATP (16 μM) and a phosphoacceptor peptide substrate FAM-GEEPLYWSFPAKKK-NH2 (1 μM) at room temperature for 3 h. The reaction was then terminated with EDTA, final concentration 20 mM and the phosphorylated reaction product was quantified on a Caliper Desktop Profiler (Caliper LabChip 3000). Percent inhibition was calculated for each compound dilution and the concentration that produced 50% inhibition was calculated. This value is presented as the IC50.

Sequence of human recombinant BTK (Q06187 whole entry): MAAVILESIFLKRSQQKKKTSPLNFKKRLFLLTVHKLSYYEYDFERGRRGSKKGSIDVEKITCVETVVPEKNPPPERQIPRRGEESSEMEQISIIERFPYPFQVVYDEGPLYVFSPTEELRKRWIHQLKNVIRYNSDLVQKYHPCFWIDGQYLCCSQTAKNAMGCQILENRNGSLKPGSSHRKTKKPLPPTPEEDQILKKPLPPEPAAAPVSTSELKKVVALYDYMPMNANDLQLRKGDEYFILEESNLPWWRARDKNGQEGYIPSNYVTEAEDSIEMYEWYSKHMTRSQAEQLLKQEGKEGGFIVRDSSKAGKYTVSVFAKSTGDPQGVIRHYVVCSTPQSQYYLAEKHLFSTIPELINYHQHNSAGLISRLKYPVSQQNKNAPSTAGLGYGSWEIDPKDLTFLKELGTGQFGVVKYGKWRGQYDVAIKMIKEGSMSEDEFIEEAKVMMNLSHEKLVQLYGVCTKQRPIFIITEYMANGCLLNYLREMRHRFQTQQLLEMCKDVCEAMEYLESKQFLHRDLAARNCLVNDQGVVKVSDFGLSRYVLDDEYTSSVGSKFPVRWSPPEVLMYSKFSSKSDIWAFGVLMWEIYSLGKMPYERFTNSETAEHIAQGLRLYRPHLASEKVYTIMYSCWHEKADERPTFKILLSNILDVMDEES

SMILES | pIC50 (CD69 expression) | pIC50 (human recombinant BTK)
CC(C)(C=C(C#N)C(=O)N1CCC[C@@H](n2nc(-c3ccc(Oc4ccccc4)cc3F)c3c(N)nccc32)C1)N1CCN(C2COC2)CC1 [Compound 1, (R)-2-(3-(4-amino-3-(2-fluoro-4-phenoxyphenyl)-1H-pyrazolo[4,3-c]pyridin-1-yl)piperidine-1-carbonyl)-4-methyl-4-(4-(oxetan-3-yl)piperazin-1-yl)pent-2-enenitrile] | 6.96 | –
CC(C)(C=C(C#N)C(=O)N1CCC[C@@H](n2nc(-c3ccc(Oc4ccccc4)cc3F)c3c(N)nccc32)C1)N1CCN(C2(C)COC2)CC1 [Compound 7, (R)-2-(3-(4-amino-3-(2-fluoro-4-phenoxyphenyl)-1H-pyrazolo[4,3-c]pyridin-1-yl)piperidine-1-carbonyl)-4-methyl-4-(4-(3-methyloxetan-3-yl)piperazin-1-yl)pent-2-enenitrile] | 6.94 | –
CC(C)(C)C=C(C#N)C(=O)N1CCC[C@@H](n2nc(-c3ccc(Oc4ccccc4)cc3F)c3c(N)nccc32)C1 [Compound 9, (R)-2-(3-(4-amino-3-(2-fluoro-4-phenoxyphenyl)-1H-pyrazolo[4,3-c]pyridin-1-yl)piperidine-1-carbonyl)-4,4-dimethylpent-2-enenitrile] | 6.28 | 8.07
CN1CCN(C(C)(C)C=C(C#N)C(=O)N2CCC[C@H]2Cn2nc(-c3ccc(Oc4ccccc4)cc3F)c3c(N)nccc32)CC1 [Compound 12, (S)-2-(2-((4-amino-3-(2-fluoro-4-phenoxyphenyl)-1H-pyrazolo[4,3-c]pyridin-1-yl)methyl)pyrrolidine-1-carbonyl)-4-methyl-4-(4-methylpiperazin-1-yl)pent-2-enenitrile] | 6.06 | 7.85
CC(C)(C=C(C#N)C(=O)N1CCC[C@H]1Cn1nc(-c2ccc(Oc3ccccc3)cc2F)c2c(N)nccc21)N1CCN(C2COC2)CC1 [Compound 13, (S)-2-(2-((4-amino-3-(2-fluoro-4-phenoxyphenyl)-1H-pyrazolo[4,3-c]pyridin-1-yl)methyl)pyrrolidine-1-carbonyl)-4-methyl-4-(4-(oxetan-3-yl)piperazin-1-yl)pent-2-enenitrile] | 5.89 | 8.13
CN(C1COC1)C(C)(C)C=C(C#N)C(=O)N1CCC[C@@H](n2nc(-c3ccc(Oc4ccccc4)cc3F)c3c(N)nccc32)C1 [Compound 14, (R)-2-(3-(4-amino-3-(2-fluoro-4-phenoxyphenyl)-1H-pyrazolo[4,3-c]pyridin-1-yl)piperidine-1-carbonyl)-4-methyl-4-(methyl(oxetan-3-yl)amino)pent-2-enenitrile] | 6.74 | –
COC(=O)N1CCN(C(C)(C)C=C(C#N)C(=O)N2CCC[C@@H](c3nc(-c4ccc(Oc5ccccc5)cc4F)c4c(N)nccn34)C2)CC1 [Compound 58, (R)-methyl 4-(5-(3-(8-amino-1-(2-fluoro-4-phenoxyphenyl)imidazo[1,5-a]pyrazin-3-yl)piperidin-1-yl)-4-cyano-2-methyl-5-oxopent-3-en-2-yl)piperazine-1-carboxylate] | – | 8.55
CC(C)(C=C(C#N)C(=O)N1CCC[C@@H](c2nc(-c3ccc(Oc4ccccc4)cc3F)c3c(N)nccn23)C1)N1CCN2C(=O)CC[C@H]2C1 [Compound 62, 2-((R)-3-(8-amino-1-(2-fluoro-4-phenoxyphenyl)imidazo[1,5-a]pyrazin-3-yl)piperidine-1-carbonyl)-4-methyl-4-((S)-6-oxohexahydropyrrolo[1,2-a]pyrazin-2(1H)-yl)pent-2-enenitrile] | – | 8.66
CN1CCN(C(C)(C)C=C(C#N)C(=O)N2CCC[C@@H](n3nc(-c4ccc(Oc5ccccc5)cc4F)c4c(N)nccc43)C2)CC1=O [Compound 72, (R)-2-(3-(4-amino-3-(2-fluoro-4-phenoxyphenyl)-1H-pyrazolo[4,3-c]pyridin-1-yl)piperidine-1-carbonyl)-4-methyl-4-(4-methyl-3-oxopiperazin-1-yl)pent-2-enenitrile] | – | 8.70

Continued by rising pIC50 (human recombinant BTK), values first:

pIC50 (CD69 expression) | pIC50 (human recombinant BTK) | SMILES
6.70 | 8.70 | CC(C)(/C=C(\C#N)C(=O)N1CCC[C@@H](n2nc(-c3ccc(Oc4ccccc4)cc3F)c3c(N)nccc32)C1)N1CCOCC1 [Compound 11, (R)-2-(3-(4-amino-3-(2-fluoro-4-phenoxyphenyl)-1H-pyrazolo[4,3-c]pyridin-1-yl)piperidine-1-carbonyl)-4-methyl-4-morpholinopent-2-enenitrile]
6.54 | 8.72 | CN1CCN(C(C)(C)/C=C(\C#N)C(=O)N2CCC[C@@H](n3nc(-c4ccc(Oc5ccccc5)cc4F)c4c(N)nccc43)C2)CC1 [Compound 10, (R)-2-(3-(4-amino-3-(2-fluoro-4-phenoxyphenyl)-1H-pyrazolo[4,3-c]pyridin-1-yl)piperidine-1-carbonyl)-4-methyl-4-(4-methylpiperazin-1-yl)pent-2-enenitrile]
6.03 | 8.77 | CC(C)(C)C=C(C#N)C(=O)N1CCC[C@H]1Cc1nc(-c2ccc(Oc3ccccc3)cc2F)c2c(N)nccn12 [Compound 16, (S)-2-(2-((8-amino-1-(2-fluoro-4-phenoxyphenyl)imidazo[1,5-a]pyrazin-3-yl)methyl)pyrrolidine-1-carbonyl)-4,4-dimethylpent-2-enenitrile]
– | 8.77 | CC1(C=C(C#N)C(=O)N2CCC[C@@H](c3nc(-c4ccc(Oc5ccccc5)cc4)c4c(N)nccn34)C2)CCOCC1 [Compound 54, (R)-2-(3-(8-amino-1-(4-phenoxyphenyl)imidazo[1,5-a]pyrazin-3-yl)piperidine-1-carbonyl)-3-(4-methyltetrahydro-2H-pyran-4-yl)acrylonitrile]
– | 8.85 | CC(=O)N1CCN(C(C)(C)C=C(C#N)C(=O)N2CCC[C@@H](c3nc(-c4ccc(Oc5ccccc5)cc4F)c4c(N)nccn34)C2)CC1 [Compound 59, (R)-4-(4-acetylpiperazin-1-yl)-2-(3-(8-amino-1-(2-fluoro-4-phenoxyphenyl)imidazo[1,5-a]pyrazin-3-yl)piperidine-1-carbonyl)-4-methylpent-2-enenitrile]
– | 8.92 | COC(=O)N1CCN(C(C)(C)C=C(C#N)C(=O)N2CCC[C@@H](c3nc(-c4ccc(Oc5ccccc5)cc4)c4c(N)nccn34)C2)CC1 [Compound 56, (R)-methyl 4-(5-(3-(8-amino-1-(4-phenoxyphenyl)imidazo[1,5-a]pyrazin-3-yl)piperidin-1-yl)-4-cyano-2-methyl-5-oxopent-3-en-2-yl)piperazine-1-carboxylate]
– | 8.96 | CC(=O)N1CCN(C(C)(C)C=C(C#N)C(=O)N2CCC[C@@H](c3nc(-c4ccc(Oc5ccccc5)cc4)c4c(N)nccn34)C2)CC1 [Compound 57, (R)-4-(4-acetylpiperazin-1-yl)-2-(3-(8-amino-1-(4-phenoxyphenyl)imidazo[1,5-a]pyrazin-3-yl)piperidine-1-carbonyl)-4-methylpent-2-enenitrile]
– | 9.05 | CC(C)(C=C(C#N)C(=O)N1CCC[C@@H](c2nc(-c3ccc(Oc4ccccc4)cc3F)c3c(N)nccn23)C1)N1CCN2C(=O)CC[C@@H]2C1 [Compound 63, 2-((R)-3-(8-amino-1-(2-fluoro-4-phenoxyphenyl)imidazo[1,5-a]pyrazin-3-yl)piperidine-1-carbonyl)-4-methyl-4-((R)-6-oxohexahydropyrrolo[1,2-a]pyrazin-2(1H)-yl)pent-2-enenitrile]
– | 9.10 | CC(C)(C=C(C#N)C(=O)N1CCC[C@@H](c2nc(-c3ccc(Oc4ccccc4)cc3)c3c(N)nccn23)C1)N1CCN2C(=O)CC[C@H]2C1 [Compound 64, 2-((R)-3-(8-amino-1-(4-phenoxyphenyl)imidazo[1,5-a]pyrazin-3-yl)piperidine-1-carbonyl)-4-methyl-4-((S)-6-oxohexahydropyrrolo[1,2-a]pyrazin-2(1H)-yl)pent-2-enenitrile]
– | 9.22 | CC(C)(C=C(C#N)C(=O)N1CCC[C@@H](c2nc(-c3ccc(Oc4ccccc4)cc3)c3c(N)nccn23)C1)N1CCN2C(=O)CC[C@@H]2C1 [Compound 65, 2-((R)-3-(8-amino-1-(4-phenoxyphenyl)imidazo[1,5-a]pyrazin-3-yl)piperidine-1-carbonyl)-4-methyl-4-((R)-6-oxohexahydropyrrolo[1,2-a]pyrazin-2(1H)-yl)pent-2-enenitrile]
– | 9.52 | CN1CCN(C(=O)C(C#N)=CC(C)(C)C)C[C@@H]1c1nc(-c2ccc(Oc3ccccc3)cc2)c2c(N)nccn12 [Compound 66, (R)-2-(3-(8-amino-1-(4-phenoxyphenyl)imidazo[1,5-a]pyrazin-3-yl)-4-methylpiperazine-1-carbonyl)-4,4-dimethylpent-2-enenitrile]
– | 9.70 | CN1CCN(C(=O)C(C#N)=CC2(C)CCOCC2)C[C@@H]1c1nc(-c2ccc(Oc3ccccc3)cc2)c2c(N)nccn12 [Compound 67, (R)-2-(3-(8-amino-1-(4-phenoxyphenyl)imidazo[1,5-a]pyrazin-3-yl)-4-methylpiperazine-1-carbonyl)-3-(4-methyltetrahydro-2H-pyran-4-yl)acrylonitrile]
